Source: patent US20180243421A1, “IMMUNOSTIMULATING AGENT” (AJINOMOTO CO., INC., priority 2015, published 2018)

What follows are molecules tested on anti-OVA-specific IgE antibody. Details: mouse, in vivo.
Outline: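 Female BALB/c mice (8-week-old, N=6) were immunized dorsal-subcutaneously with OVA (5 or 10 μg) alone or with adjuvants (Alum, Addavax™, CpG 5 μg, MPL 5 μg, or test lipid 0.256 μmol in 5% αCD saline), boosted one week later. Serum anti-OVA IgE was measured by capture ELISA with HRP-labeled OVA, read at OD 450 nm against a standard curve.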

Structure (SMILES) | allergy inducing activity as compared to aluminum hydroxide gel adjuvant | allergy inducing activity as compared to aluminum hydroxide gel adjuvant and Addavax | allergy inducing activity as compared to Addavax | anti-OVA-specific IgE antibody production as compared to the OVA single administration group
CCCCCCCCCCCCCCCC(=O)NC(=N)NCCCCN [SZ62, N-hexadecanoylagmatine] | lower allergy inducing activity | lower allergy inducing activity | – | –
CCCCCCCCCCCCCCCCCCC(CCCCCCCCCCCCCCCCCC)C(=O)N[C@@H](CC(C)C)C(=O)OC [SZ86, N-(2-octadecyleicosanoyl)-L-leucine methyl ester] | – | – | low allergy inducing activity | a significant increase in the anti-OVA-specific IgE antibody production was not observed
CCCCCCCCCCCCCCCC(=O)N[C@@H](CC(C)C)C(=O)N(CC)CC [SZ92, N^2-hexadecanoyl-N^1,N^1-diethyl-L-leucinamide] | – | – | low allergy inducing activity | a significant increase in the anti-OVA-specific IgE antibody production was not observed
CCCCCCCCCCCCCCCC(=O)N[C@@H](CC(C)C)C(=O)OCCCCCC [SZ97, N-hexadecanoyl-L-leucine hexyl ester] | – | – | low allergy inducing activity | a significant increase in the anti-OVA-specific IgE antibody production was not observed
CCCCCCCCCCCCCCCC(=O)N[C@@H](CCCNC(=N)N)C(=O)OCCCCCC.Cl [SZ99, N^2-hexadecanoyl-L-arginine hexyl ester hydrochloride salt] | – | – | low allergy inducing activity | a significant increase in the anti-OVA-specific IgE antibody production was not observed
CCCCCCCCCCCCCCCCCCCCCC(=O)N[C@@H](CCC(=O)O)C(=O)N(CC)CC [SZ106, N^2-docosanoyl-N^1,N^1-diethyl-L-glutamic acid 1-amide] | – | – | low allergy inducing activity | a significant increase in the anti-OVA-specific IgE antibody production was not observed
CCCCCCCCCCCCCCCCCCCCCC(=O)NC(=N)NCCCCN.Cl [SZ108, N-docosanoylagmatine hydrochloride salt] | – | – | low allergy inducing activity | a significant increase in the anti-OVA-specific IgE antibody production was not observed
